Measured values: paper PMC6536313 (Bioorganic & medicinal chemistry, 2019)
One block for each molecule: values may come before it.

Tests used:
σ1 receptor (σ1R) = σ1 receptor (σ1R) (Homo sapiens, UniProt Q99720); assay: Sigma-1 receptor radioligand binding
σ2 receptor (σ2R) = σ2 receptor (σ2R) (Homo sapiens, UniProt Q5BJF2); assay: Sigma-2 receptor radioligand binding; conditions: for σ2R pKi ± SEM: Mean ± SEM
[1] = on removal of both chloro and fluoro substituents (ether analogs 13-15)

σ2 receptor (σ2R), sequence (Q5BJF2 whole entry, species assumed): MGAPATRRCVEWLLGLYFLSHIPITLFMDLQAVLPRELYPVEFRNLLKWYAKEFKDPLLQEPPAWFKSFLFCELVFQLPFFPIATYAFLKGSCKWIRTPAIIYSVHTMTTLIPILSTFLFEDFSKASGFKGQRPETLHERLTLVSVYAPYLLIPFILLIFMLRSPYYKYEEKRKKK
σ1 receptor (σ1R), sequence (Q99720 whole entry, species assumed): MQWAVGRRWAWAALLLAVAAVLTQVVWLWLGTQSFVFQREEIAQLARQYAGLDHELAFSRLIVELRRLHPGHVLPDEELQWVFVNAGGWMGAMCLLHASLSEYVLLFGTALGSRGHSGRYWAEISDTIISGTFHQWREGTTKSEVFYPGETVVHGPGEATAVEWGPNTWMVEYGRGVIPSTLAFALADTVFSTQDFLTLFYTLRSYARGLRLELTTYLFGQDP

SMILES: OC1(c2ccc(Cl)cc2)CC2CCC(C1)N2CCCCc1ccc(F)cc1 (centres unmarked) [Compound 17]
- fold lower affinity for σ1 receptor (σ1 receptor (σ1R); relative to compound 5): 6 fold
- fold lower affinity for σ2 receptor (σ2 receptor (σ2R); relative to compound 5): 3 fold

SMILES: Fc1ccc(SCCCN2CCCN(c3ccc(Cl)cn3)CC2)cc1 [Compound 7, 1-(5-chloropyridin-2-yl)-4-(3-((4-fluorophenyl)thio)propyl)-1,4-diazepane]
- σ2R pKi ± SEM (σ2 receptor (σ2R)): 8.65 ± 0.05

SMILES: O=C(CCCN1CCCN(c2ccccn2)CC1)c1ccc(F)cc1 [Compound 3, 1-(4-fluorophenyl)-4-(4-(pyridin-2-yl)-1,4-diazepan-1-yl)butan-1-one]
- σ2R pKi ± SEM (σ2 receptor (σ2R)): 7.49 ± 0.09

SMILES: c1ccc(OCCCN2CCN(c3ccccc3)CC2)cc1 [Compound 15]
- fold decrease in binding affinity at σ1 receptor (σ1 receptor (σ1R); [1]): 2–5 fold
- fold decrease in binding affinity at σ2 receptor (σ2 receptor (σ2R); [1]): 2–5 fold

Next, values leading:

- σ2R pKi ± SEM (σ2 receptor (σ2R)): 7.37 ± 0.05
SMILES: Fc1ccc(CCCCN2CCN(c3ccc(Cl)cn3)CC2)cc1 [Compound 10, 1-(5-chloropyridin-2-yl)-4-(4-(4-fluorophenyl)butyl)piperazine]

- σ2R pKi ± SEM (σ2 receptor (σ2R)): 8.07 ± 0.06
SMILES: Fc1ccc(CCCCN2CCCN(c3ccc(Cl)cc3)CC2)cc1 [Compound 5]

- σ2R pKi ± SEM (σ2 receptor (σ2R)): 7.48 ± 0.09
SMILES: Clc1ccc(N2CCN(CCCOc3ccccc3)CC2)cc1 [Compound 13]

- fold reduction/loss of binding affinity at σ1 receptor (σ1 receptor (σ1R); relative to compound 8): greater than 45 fold
- fold reduction/loss of binding affinity at σ2 receptor (σ2 receptor (σ2R); relative to compound 8): > 71 fold
SMILES: [O-][S+](CCCN1CCN(c2ccc(Cl)cc2)CC1)c1ccc(F)cc1 (centres unmarked) [Compound 12]
